Reference: patent US5036045A, “Method for increasing growth hormone secretion” (The University of Virginia Alumni Patents Foundation, priority 1988, dated 1991)

Experiments:
growth hormone secretion [1] = details: after 6 hours infusions of 1, 3.3 and 10 ng/kg/min; cited from earlier work
growth hormone secretion [2] = assay: 24 hour infusion in healthy young men with supramaximal bolus after 23.5 hours; format: in vivo, human; details: 2 ng/kg/min for 24 hours, six healthy young men
Procedure: (§1) In a most recent study the 6 hour infusion was repeated but insulin was given at the end of the infusion to provide an alternate stimulus (hypoglycemia) for growth hormone secretion compared to hypoglycemia after vehicle infusion. […] Next 24 hour infusions of growth hormone releasing factor were performed and the growth hormone and growth hormone releasing factor secretory profile of a patient were studied with ectopic growth hormone releasing factor secretion (Vance et al, J. Clin. Invest., 1985, 75, 1584-1590). In this patient growth hormone secretion was pulsatile despite continuously elevated immunoreactive growth hormone releasing factor levels. To determine if pulsatile growth hormone secretion is maintained in normal subjects, vehicle or growth hormone releasing factor-40, 2 ng/kg/min, was administered to six healthy young men for 24 hours and gave a supramaximal intravenous bolus dose of growth hormone releasing factor-40, 3 μg/kg after 23.5 hours of infusion.

growth hormone secretion [3] = assay: 14-day continuous intravenous infusion by mechanical pump, 24 hour growth hormone profile; format: in vivo, human; details: 10 ng/kg/min intravenous over 14 days, 4 subjects
Procedure: Growth hormone releasing factor was administered by mechanical pump which delivered a dose of 10 ng/kg/min by the intravenous route over 14 days in 4 subjects aged 26 to 31 years. The profile of growth hormone secretion was measured over 24 hours before the initiation of the infusion, on the fourteenth day of the infusion, and two weeks after stopping the infusion.

growth hormone secretion [4] = details: cited from earlier work
[5] = adverse effects of continuous administration; format: in vivo
growth = details: normal rat, cited from earlier work
growth hormone secretion [6] = assay: 6 hour infusion followed by insulin (hypoglycemia) stimulus; format: in vivo, human; details: insulin given at the end, compared to hypoglycemia after vehicle infusion
Procedure: as §1

| Substance | growth hormone response to supramaximal bolus at end of infusion (growth hormone secretion [1]) | effect on naturally occuring growth hormone pulses (growth hormone secretion [2]) | growth hormone secretion compared to vehicle infusion (growth hormone secretion [2]) | pulsatile growth hormone secretion during infusion (growth hormone secretion [2]) | response to a supramaximal dose of growth hormone releasing factor (growth hormone secretion [3]) | growth hormone secretion (growth hormone secretion [3]; measured on fourteenth day of infusion) | serum Insulin Growth Factor-1 (IGF-1) level (growth hormone secretion [3]; marker of biological activity of growth hormone) | release of growth hormone in response to supramaximal dose at end of infusion (growth hormone secretion [4]; end of the 6 or 24 hour infusion) | growth hormone secretion over the duration of the infusion (growth hormone secretion [4]; short-term administration (6-24 hours)) | blood pressure, pulse rate, body temperature [5] | side effects [5] | growth, continuous administration (growth; continuous administration) | growth, pulsatile administration (growth; pulsatile administration) | desensitization to growth hormone releasing factor (growth hormone secretion [6]) |
| --- | --- | --- | --- | --- | --- | --- | --- | --- | --- | --- | --- | --- | --- | --- |
| growth hormone releasing factor-40 (YADAIFTNSYRKVLGQLSARKLLQDIMSRQQGESNQERGA; Somatoliberin; UniProt P01286 32-71, looked up, fragment) [40 amino acid form of human growth hormone releasing factor] | inversely related to the 6 hour infusion dose | augmentation of naturally occuring growth hormone pulses | greater growth hormone secretion than did vehicle infusion | pulsatile growth hormone secretion was maintained |  |  |  |  |  |  |  |  |  |  |
| growth hormone releasing factor |  |  |  |  | normal or accentuated responses | augmented growth hormone secretion | rise in serum Insulin Growth Factor-1 (IGF-1) level | reduced release of growth hormone | stimulates growth hormone secretion intermittently | No changes in blood pressure, pulse rate, or body temperature | no side effects | does not | accelerates growth | partial homologous desensitization |
